In the assay the target is Nonstructural protein 3 (Zika virus, UniProt A0A024AXB9). The assay is described as follows: Functional biochemical assay to identify treatments for viral infectious disease that targets Zika NS2B-NS3 protease. Utilizing a direct enzyme activity measurement method, reading the fluorescence intensity is used to characterize the relative potency of inhibitors as IC50. Also noted: species or system PRVABC59.

Molecules are shown by their SMILES. Values joined by “and” are separate entries in the source; they are usually repeats but may differ in a detail not shown here. Equal entries are not always repeated. A value given as a limit tells only on which side of the number the result lay.

In general, IC50 refers to the concentration at which inhibition is half-maximal.

Sequence of Nonstructural protein 3 (A0A024AXB9 whole entry): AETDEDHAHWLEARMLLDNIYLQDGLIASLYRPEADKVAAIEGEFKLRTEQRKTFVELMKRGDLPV

Turning to `O=C(Nc1cc(Cl)cc(C(=O)NCCc2nnn[nH]2)c1)OCc1ccccc1`, the IC50 is > 99.5 µM.

Take `N#Cc1ccc(CN)cc1NC(=O)c1cc(Cl)cc(NC(=O)OCc2ccccc2)c1`: the half-maximal inhibitory concentration (IC50) was 18.7 µM.

For the compound `CC[C@H](Cc1nnn[nH]1)c1ccc(NC(=O)c2cc(Cl)cc(SC)c2)cc1`, the concentration for half-maximal inhibition (IC50) was > 99.5 µM.

Take `CCn1c(=O)c(N2CC[C@H](CO)C2)nc2ccc(C(=O)NS(C)(=O)=O)cc21`: the concentration for half-maximal inhibition (IC50) was > 99.5 µM.

In the case of `Cc1c(C(=O)Nc2cccc([C@H]3CCNC3)c2)cc(C2CC2)n1C`, the 50% inhibitory concentration (IC50) was > 99.5 µM.

The compound `Cc1c(C(=O)Nc2cccc(CCN)c2)cc(C2CC2)n1C` showed an IC50 of 88.3 µM.

On to `Cc1ccc(NC(=O)c2cc(C3CC3)n(C)c2C)cc1CN`, for which the concentration for half-maximal inhibition (IC50) is > 99.5 µM.

Consider `CC[C@H](Cc1nnn[nH]1)c1ccc(NC(=O)c2cc(Cl)cc3[nH]ncc23)cc1`, for which the half-inhibitory concentration (IC50) is > 99.5 µM.

Turning to `CCc1nc(C(=O)Nc2cccc(CN)c2)nn1-c1c(Cl)cccc1Cl`, the 50% inhibitory concentration (IC50) was > 99.5 µM.

For `N#Cc1cc(Cl)cc(C(=O)Nc2cccc(-n3nn[nH]c3=O)c2)c1`, the half-maximal inhibitory concentration (IC50) is > 99.5 µM.

Take `Cn1nnnc1-c1cccc(NC(=O)c2cc(Cl)cc(NC(=O)OCc3ccccc3)c2)c1`: the IC50 was > 99.5 µM.

Take `O=C1Cc2cc(NC(=O)c3cc(Cl)cc(NC(=O)OCc4ccccc4)c3)ccc2N1`: the IC50 is > 99.5 µM.

On to `Nc1cccc(NC(=O)c2cc(Cl)cc(NC(=O)OCc3ccccc3)c2)n1`, for which the IC50 is > 99.5 µM.

Turning to `O=C(Nc1cc(Cl)cc(C(=O)NCCCc2nnn[nH]2)c1)OCc1ccccc1`, the 50% inhibitory concentration (IC50) was > 99.5 µM.

Take `CC(C)[C@H](NC(=O)c1cc(Cl)cc(NC(=O)OCc2ccccc2)c1)c1nn[nH]n1`: the IC50 is > 99.5 µM.

For the compound `CC[C@H](Cc1nnn[nH]1)c1ccc(NC(=O)c2cc(Cl)cc(C#N)c2)cc1`, the IC50 is > 99.5 µM.

Turning to `Cc1cc(CN)cc(NC(=O)c2cc(C3CC3)n(C)c2C)c1`, the IC50 is > 99.5 µM.

Turning to `Cc1c(C(=O)Nc2cccc([C@@H](C)N)c2)cc(C2CC2)n1C`, the concentration for half-maximal inhibition (IC50) is > 99.5 µM.

Consider `N#Cc1cc(Cl)cc(C(=O)Nc2cccc(-c3nnn[nH]3)c2)c1`, for which the half-maximal inhibitory concentration (IC50) is > 99.5 µM.

On to `CNC(=O)[C@H](Nc1cccc(CN)c1)c1cc(Cl)cc(NC(=O)OCc2ccccc2)c1`, for which the concentration for half-maximal inhibition (IC50) was 0.612 µM.

`O=C(Nc1cc(Cl)cc(C(=O)Nc2ccc([C@H]3CCCNC3)cc2)c1)OCc1ccccc1` yielded an IC50 of 7.51 µM.

For `O=C(Nc1cccc(-c2nnn[nH]2)c1)c1cc(Cl)cc(C2CC2)c1`, the half-inhibitory concentration (IC50) was > 99.5 µM.

As to `Cc1c(C(=O)Nc2cc(CCCN)ccn2)cc(C2CC2)n1C`, it took 39.9 µM to reach half-maximal inhibition (IC50).

As for `O=C(Nc1cc(Cl)cc(C(=O)N[C@]2(c3nnn[nH]3)CCOC2)c1)OCc1ccccc1`, the 50% inhibitory concentration (IC50) was > 99.5 µM.

`O=C(Nc1cc(Cl)cc(C(=O)N[C@H](c2nn[nH]n2)C2CNC2)c1)OCc1ccccc1`: the half-inhibitory concentration (IC50) was > 99.5 µM.

Take `Cn1nc(C(=O)Nc2cccc(CN)c2)c2c1CCS(=O)(=O)C2`: the half-maximal inhibitory concentration (IC50) is > 99.5 µM.

Consider `O=C(Nc1cccc(-n2nn[nH]c2=O)c1)c1cc(Cl)cc(N2CCCC2=O)c1`, for which the IC50 was > 99.5 µM.

Take `CC[C@H](Cc1nnn[nH]1)c1ccc(NC(=O)c2cc(Cl)cc3c2CCC3)cc1`: the IC50 was > 99.5 µM.

Take `CC[C@H](Cc1nnn[nH]1)c1ccc(NC(=O)c2cc(Cl)cc(C3CC3)c2)cc1`: the IC50 is > 99.5 µM.

Consider `CCc1cc(C(=O)Nc2cccc(-c3nnn[nH]3)c2)sc1-c1ccc(Cl)cc1`, for which the IC50 is 11.8 µM and 16.7 µM.

On to `Cc1c(C(=O)Nc2cccc(C3CCNCC3)c2)cc(C2CC2)n1C`, for which the IC50 is > 99.5 µM.

With `CC(C)[C@H]1C(=O)O[C@@H]1C(=O)O`, the concentration for half-maximal inhibition (IC50) is > 99.5 µM.

With `O=C(Nc1cc(Cl)cc(C(=O)Nc2ccc3c(c2)CNC3=O)c1)OCc1ccccc1`, the 50% inhibitory concentration (IC50) is > 99.5 µM.

Consider `Cc1c(C(=O)Nc2n[nH]c3c2CNC3)cc(C2CC2)n1C`, for which the 50% inhibitory concentration (IC50) is > 99.5 µM.

Regarding `Cc1c(C(=O)Nc2ccc(CCN)cc2)cc(C2CC2)n1C`, the concentration for half-maximal inhibition (IC50) was determined as 92.6 µM.

For the compound `CC[C@H](Cc1nnn[nH]1)c1ccc(NC(=O)c2cc(Cl)cc(Cl)c2OC)cc1`, the half-maximal inhibitory concentration (IC50) was > 99.5 µM.

`CCNC(=O)Nc1cc(Cl)cc(C(=O)O)c1`: the IC50 is > 99.5 µM.

The values are drawn from ChEMBL document CHEMBL5604062, “ASAP - ZIKV NS2B-NS3 protease fluorescence dose response” (2024).
